These results are taken from patent publication US20030159171A1, “Novel plant genes and uses thereof” (Syngenta Participations AG, priority 1999, published 2003).

For the assay, the system named is sugarbeet NIM-like clone (SEQ ID NO:39 and 63). Nature of the assay: Northern analysis of sugarbeet NIM-like clone expression after BTH treatment. The note with it: after 100 μM or 300 μM BTH treatment. Type of assay: in vivo, Beta vulgaris.

Turning to `CSC(=O)c1cccc2nnsc12` [BTH, benzo(1,2,3)thiadiazole-7-carbothioic acid S-methyl ester], the “increase of expression of the sugarbeet NIM-like clone (Northern data)” value is on record as “three to seven”.
